# Results: US10407396B2, “Crystalline form of selexipag” (Apotex Inc., priority 2017, dated 2019)
# How the values were obtained:
# [1] = PXRD study of crystal form stability on storage; assay type: physicochemical; conditions: sealed vial under nitrogen atmosphere, room temperature and ambient humidity
# Description: Selexipag Form APO-I can be characterized by a PXRD diffractogram comprising, among other peaks, characteristic peaks, expressed in degrees 2θ (±0.2°), at 7.5°, 12.4° and 21.7°. Preferably, the PXRD diffractogram further comprises at least three peaks, expressed in degrees 2θ (±0.2°), selected from the group consisting of 9.4°, 11.6°, 14.1°, 15.1°, 16.7°, 17.2°, 18.3°, 19.9°, 22.3° and 23.6°. More preferably, the PXRD diffractogram further comprises peaks, expressed in degrees 2θ (±0.2°), at 9.4°, 11.6°, 14.1°, 15.1°, 16.7°, 17.2°, 18.3°, 19.9°, 22.3° and 23.6°. PXRD studies of samples of Selexipag Form APO-I maintained under a nitrogen atmosphere in a sealed vial have shown that this crystal form is stable following storage at room temperature and ambient humidity for at least 14 days. PXRD diffractograms were recorded on a Bruker D8 Discover powder X-ray diffractometer (Bruker-AXS, Karlsruhe, Germany). The generator was a Micro-focus X-ray source (IMSTube: Cu tube with 1.54184 Å) with a voltage of 50 kV and current of 1.00 mA, using a divergence slit of 0.3 mm and collimator of 0.3 mm. For each sample, one frame was collected using a still scan with a Pilatus 3R-100 kA detector at the distance of 154.72 mm from the sample. Raw data were evaluated using the program EVA (Bruker-AXS, Karlsruhe, Germany).
# [2] = drug substance in UPTRAVI, per AusPAR, cited from earlier work
compound,measurement,setting,value
"CC(C)N(CCCCOCC(=O)NS(C)(=O)=O)c1cnc(-c2ccccc2)c(-c2ccccc2)n1 [Selexipag Form APO-I, 2-{4-[N-(5,6-diphenylpyrazin-2-yl)-N-isopropylamino]butyloxy}-N-(methylsulfonyl)acetamide]",crystal form stable following storage (PXRD),[1],at least 14 days
"CC(C)N(CCCCOCC(=O)NS(C)(=O)=O)c1cnc(-c2ccccc2)c(-c2ccccc2)n1 [Form I, 2-{4-[N-(5,6-diphenylpyrazin-2-yl)-N-isopropylamino]butyloxy}-N-(methylsulfonyl)acetamide]",Biopharmaceutics Classification System (BCS) class,[2]; Class II = high permeability but low solubility,Class II
same,solubility behaviour,[2],pH dependent solubility
